The test system of one test is OLFML3. Nature of the test: Immunoblots for OLFML3 in GBM cells and GSCs. The conditions noted are these: immunoblot. Type of test: cell-based, human and mouse. Here is the method: Cell Culture. The GBM cell lines U87, U251, SF763, LN229, and CT2A, as well as 293T cells were cultured in Dulbecco's Modified Eagle's Medium (DMEM; Gibco, #11995-065). The mouse glioma cell line GL261 cells and SIM-A9 microglia were cultured in Dulbecco's Modified Eagle Medium-Ham's F12 medium (Gibco, #10565-018). HMC3 microglia were cultured in Eagle's Minimum Essential Medium (ATCC, #30-2003). THP-1 macrophages were cultured in RPMI 1640 medium (Gibco, #11875093). All cell lines were cultured in the indicated medium containing 10% fetal bovine serum (FBS; Fisher Scientific, #16140071) and 1:100 antibiotic-antimycotic (Gibco, #15140-122), and were purchased from the American Type Culture Collection (ATCC). Human GSCs (GSC23 and GSC7-10) and mouse GBM tumor-derived 005 GSCs and QPP7 GSCs were cultured in neural stem cell (NSC) proliferation media (Millipore, #SCM005) containing 20 ng/mL epidermal growth factor (EGF; PeproTech, #AF-100-15) and basic fibroblast growth factor (bFGF; PeproTech, #100-18B). Human GSCs were gifted by Dr. Frederick F. Lang from the Brain Tumor Center (The University of Texas MD Anderson Cancer Center). 005 GSCs and QPP7 GSCs were provided by Dr. Samuel D. Rabkin (Massachusetts General Hospital) and Dr. Jian Hu (The University of Texas MD Anderson Cancer Center), respectively. PTEN CRISPR KO in SF763 and LN229 cells were generated. […]

The subject of test [1] is U87, PTEN-KO SF763 cells and 005 GSCs. Description: Proliferation (CFSE) and colony formation assays. Type of test: cell-based. To be noted: BAPN 200 μM or SR9009 5 μM. Here is the method:
Proliferation (CFSE) assay. Cell proliferation was assessed using the CellTrace carboxy fluorescein succinimidyl ester (CFSE) Cell Proliferation Kit (Invitrogen, #C34554). Briefly, 1×10^6 cells were collected and incubated with CFSE working solution (1:1,000) for 20 minutes at 37° C. The staining was stopped by adding complete cell culture media. After washing, cells were cultured for 3 days with or without the treatment of BAPN (Sigma-Aldrich, #B-A3134, 200 μM), or SR9009 (Cayman, #11929, 5 μM) in the dark and used for flow cytometry analysis. The percentage of CFSE positive peaks over the undivided peak (generation 0) was analyzed using FlowJo v10.8.1.
Colony formation assay. 1×10^3 GBM cells were seeded in each well of 6-well plates with or without the treatment of BAPN (Sigma-Aldrich, #B-A3134, 200 μM), or SR9009 (Cayman, #11929, 5 μM). After 7-10 days, cells were fixed and stained with 0.5% crystal violet in 25% methanol for 1 hour. After three times washing by PBS, the plates were scanned, and the colony number was counted using ImageJ.

Consider `N#CCCN` [BAPN, β-aminopropionitrile], for which the “expression of OLFML3” value in the test with OLFML3 (human (U87, PTEN-KO SF763, GSC23, GSC7-10) and mouse (CT2A, 005 GSCs) cells, BAPN at indicated concentrations) was “increased”. For the same compound, the GBM cell proliferation entry in test [1] is recorded as “had no such effect”.
With `CCOC(=O)N1CCC(CN(Cc2ccc(Cl)cc2)Cc2ccc([N+](=O)[O-])s2)C1` (stereo not shown) [SR9009], in the test on OLFML3 (U87 and PTEN-KO SF763 cells, SR9009 5 μM with BAPN 200 μM or SC75741 5 μM), the “LOX or P65 inhibition-induced OLFML3 upregulation” value is “rescued”. In test [1], the GBM cell proliferation entry is on record as “impaired”.

The values are drawn from patent US20250186396A1, “COMPOSITIONS AND METHODS FOR THE TREATMENT OF GLIOBLASTOMA WITH A DUAL TARGETING ANTI-TUMOR COMPOSITION” (Northwestern University, priority 2023, published 2025).
